Test [1] concerns iCell endothelial cells (human iPSC-derived ECs). The test can be described thus: Tube formation (tubulogenesis) assay in iCell endothelial cells, 18 h. The note with it: Homo sapiens, Endothelial cell, 18 hr; for activity at 0.1 µM: 0.10 µM. Type of test: cell-based. An outline of the steps: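 iCell ECs (passages 1–5) seeded 7,500 cells/well on reduced-growth-factor Geltrex in starvation medium, exposed overnight at 37°C to compounds in triplicate concentration–response (0.5% DMSO vehicle). Calcein AM staining, 4× imaging, angiogenesis image analysis; readouts normalized to vehicle, four-parameter logistic fit, POD at 1 SD of vehicle; 100 μM assigned NOAEL if no response.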

The test system of the next test is HUVECs. The test can be described thus: Tube formation (tubulogenesis) assay in HUVECs, 18 h. Conditions: Homo sapiens, HUVEC, 18 h, HUVEC; for activity at 0.1 µM: 0.10 µM. The format is cell-based, human. In short, it runs like this: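 HUVECs (passage 1–5) seeded on reduced-growth-factor basement membrane and exposed to compounds overnight at 37°C, 5% CO2, in 2× maintenance medium with 12.5 ng/mL VEGF; 0.5% DMSO vehicle. Calcein AM-stained tube networks imaged and analysed; vehicle-normalized readouts fit to four-parameter logistic, POD set at one SD of vehicle means.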

Setting [2] is: endothelial cells (endo), tube formation mtl, read-out: POD endo.mtl.18hr.
[3] abbreviates: endothelial cells (endo), tube formation tlps, read-out: POD endo.tlps.18hr.
[4] abbreviates: endothelial cells (endo), tube formation tta, read-out: POD endo.tta.18hr.
The mark [5] stands for this setting: endothelial cells (endo), tube formation ttl, read-out: POD endo.ttl.18hr.
[6] abbreviates: tube formation mtl, read-out: POD huvec.mtl.18hr.
Setting [7] is: tube formation tlps, read-out: POD huvec.tlps.18hr.
Setting [8] is: tube formation tta, read-out: POD huvec.tta.18hr.
The mark [9] stands for this setting: tube formation ttl, read-out: POD huvec.ttl.18hr.
The mark [10] stands for this setting: iPSC-EC tube formation, 0.00 µM control = 100.00, read-out: endo.mtl.18hr.
[11] abbreviates: iPSC-EC tube formation, 0.00 µM control = 100.00, read-out: endo.tlps.18hr.
Where [12] appears, read: iPSC-EC tube formation, 0.00 µM control = 100.00, read-out: endo.tta.18hr.
The mark [13] stands for this setting: iPSC-EC tube formation, 0.00 µM control = 100.00, read-out: endo.ttl.18hr.
Setting [14] is: HUVECs, 0.00 µM = 100.00, read-out: huvec.mtl.18hr.
Where [15] appears, read: HUVECs, 0.00 µM = 100.00, read-out: huvec.tlps.18hr.
Setting [16] is: HUVECs, 0.00 µM = 100.00, read-out: huvec.tta.18hr.
Where [17] appears, read: HUVECs, 0.00 µM = 100.00, read-out: huvec.ttl.18hr.

Structures are written as SMILES. Counter-ions that a name gives are not always drawn. Like-named read-outs stand apart in the source and are kept apart here.

`Oc1ccc(-c2ccc(Cl)cc2)cc1` [4'-OH-PCB 3]: the minimal effective concentration in test [1] (setting [2]) was found to be 1.21 µM; in test [1] (setting [3]), 0.19 µM; in test [1] (setting [4]) it was 1.16 µM; in test [1] (setting [5]), 1.12 µM; in the test on HUVECs (setting [6]) it was 1.21 µM; in the test on HUVECs (setting [7]) it was 0.51 µM. The minimal effective concentration with HUVECs (setting [8]) came to 5.36 µM; with HUVECs (setting [9]) it was 5.16 µM.
In the case of `COc1ccc(-c2ccc(Cl)cc2)cc1` [4'-OMe PCB3], the activity at 0.01 µM in test [1] (setting [10]) was 101%; in test [1] (setting [11]) it was 95.9%; in test [1] (setting [12]) it was 157%; in test [1] (setting [13]), 149%; in the test on HUVECs (setting [14]) it was 112%; in the test on HUVECs (setting [15]), 133%. Moreover, the activity at 0.01 µM was found to be 123% in the test with HUVECs (setting [16]) and 113% in the test on HUVECs (setting [17]). Also, the activity at 0.1 µM worked out at 102% in test [1] (setting [10]); 127% in test [1] (setting [11]); 130% in test [1] (setting [12]); 124% in test [1] (setting [13]); 111% in the test with HUVECs (setting [14]); 139% with HUVECs (setting [15]). The activity at 0.1 µM with HUVECs (setting [16]) was determined as 131%; in the test with HUVECs (setting [17]), 125%. For the same molecule, the activity at 1 µM in test [1] (setting [10]) came out at 96%; in test [1] (setting [11]) it was 95%; in test [1] (setting [12]) it was 127%; in test [1] (setting [13]), 123%; with HUVECs (setting [14]) it was 103%; in the test with HUVECs (setting [15]), 128%. Besides, the activity at 1 µM in the test on HUVECs (setting [16]) came to 116%; in the test on HUVECs (setting [17]) it was 111%. The activity at 10 µM in test [1] (setting [10]) came to 76%; in test [1] (setting [11]), 82.1%; in test [1] (setting [12]) it was 58.6%; in test [1] (setting [13]), 56.5%; in the test with HUVECs (setting [14]) it was 81.4%; in the test on HUVECs (setting [15]), 122%. For the same molecule, the activity at 10 µM in the test on HUVECs (setting [16]) stood at 75.2%; with HUVECs (setting [17]) it was 75.8%. Also, the activity at 100 µM in test [1] (setting [10]) was found to be 65.6%; in test [1] (setting [11]), 33%; in test [1] (setting [12]), 46.5%; in test [1] (setting [13]), 46.3%; in the test on HUVECs (setting [14]) it was 58.6%; with HUVECs (setting [15]), 37.2%. For the same molecule, the activity at 100 µM in the test on HUVECs (setting [16]) was found to be 51.7%; in the test with HUVECs (setting [17]), 48.9%. Also, the minimal effective concentration in test [1] (iPSC-EC tube formation, top concentration 100.00 µM, read-out: endo.mtl.18hr POD) worked out at 3.4 µM; in test [1] (iPSC-EC tube formation, top concentration 100.00 µM, read-out: endo.tlps.18hr POD) it was 12.3 µM; in test [1] (iPSC-EC tube formation, top concentration 100.00 µM, read-out: endo.tta.18hr POD), 7.76 µM; in test [1] (iPSC-EC tube formation, top concentration 100.00 µM, read-out: endo.ttl.18hr POD), 7.16 µM; with HUVECs (HUVECs, top concentration 100.00 µM, read-out: huvec.mtl.18hr POD), 7.13 µM; in the test on HUVECs (HUVECs, top concentration 100.00 µM, read-out: huvec.tlps.18hr POD), 49.5 µM. Also, the minimal effective concentration is 8.82 µM in the test with HUVECs (HUVECs, top concentration 100.00 µM, read-out: huvec.tta.18hr POD) and 7.82 µM in the test on HUVECs (HUVECs, top concentration 100.00 µM, read-out: huvec.ttl.18hr POD).
As for `COc1ccc(-c2ccc(Cl)cc2)cc1` [4'-OMe-PCB 3, 4′-methoxy-4-chlorobiphenyl], the minimal effective concentration in test [1] (setting [2]) worked out at 3.4 µM; in test [1] (setting [3]), 12.3 µM; in test [1] (setting [4]), 7.76 µM; in test [1] (setting [5]) it was 7.16 µM; in the test with HUVECs (setting [6]) it was 7.13 µM; with HUVECs (setting [7]) it was 49.5 µM. Moreover, the minimal effective concentration in the test with HUVECs (setting [8]) turned out to be 8.82 µM; with HUVECs (setting [9]), 7.82 µM.
As to `O=S(=O)(O)Oc1ccc(-c2ccc(Cl)cc2)cc1` [4'-PCB 3 sulfate], the minimal effective concentration was 4.33 µM in test [1] (setting [2]); 11.7 µM in test [1] (setting [3]); 16.8 µM in test [1] (setting [4]); 11 µM in test [1] (setting [5]); 11.2 µM in the test on HUVECs (setting [6]); 100 µM in the test with HUVECs (setting [7]). Moreover, the minimal effective concentration in the test with HUVECs (setting [8]) stood at 25.4 µM; in the test with HUVECs (setting [9]) it was 100 µM.

For the origin of these results see article PMC7377239, “Cardiovascular Effects of Polychlorinated Biphenyls and Their Major Metabolites” (Environmental Health Perspectives, 2020).
